In US20260008760A1, “DIPEPTIDYL PEPTIDASE 1 INHIBITORS AND USES THEREOF” (Insmed Incorporated, priority 2024, published 2026):

Tests used:
[1] = molecular target: DPP1 in HL-60 cells (Homo sapiens, UniProt P53634); test: DPP1 Cell Single-Point Percent Inhibition Testing; type: cell-based; parameters: host or cells: HL-60 cells; conditions: final compound concentration 5 nM, n = 1
Experimental: Example 100. DPP1 Cell Single-Point Percent Inhibition Testing
HL-60 cells (ATCC; Manassas, VA) were maintained in RPMI-1640 supplemented with 20% heat-inactivated FBS and 1× Antibiotic Antimycotic (Cytiva; Marlborough, MA). Media was changed every three to four days and cells were not allowed to exceed 1×10^6 cells per mL. Prior to assay, cells were collected by centrifugation at 500 rcf for 3 minutes, resuspended in RPMI (with no additional supplements) and counted. Cells were diluted in RPMI to a concentration of 5×10^5 live cells per mL and transferred to black 96-well plates for assay, 60 μL per well. Test articles were diluted to 25 nM in RPMI plus 0.5% DMSO, and 20 μL was added to each assay well. Compound was allowed to pre-incubate with cells with gentle shaking at 100 rpm for 60 minutes at 37° C. in a cell culture incubator maintained at 5% CO2, after which 20 μL of 500 μM H-Gly-Phe-AFC cell-permeable substrate (MP Biomedicals; Solon, OH) in RPMI was added to each well, giving final compound concentration of 5 nM, a final substrate concentration of 100 μM and a final DMSO concentration of 0.1%. Plates were returned to the incubator with shaking at 100 rpm for 30 minutes, after which fluorescence was measured at Excitation/Emission 400/505 nm. Percent Inhibition was calculated from RFU values by first subtracting background values (wells in which RPMI was substituted for cells) from each well, and then subtracting background-subtracted RFU derived from wells that received a final concentration of 10 μM brensocatib. This value represents the non-specific substrate cleavage from the HL-60 cells, and the remaining RFU should theoretically be solely the contribution of DPP1 enzyme activity. The final percent inhibition value was calculated for each test article based on remaining RFU compared to RFU from wells that received only vehicle control.

[2] = molecular target: human DPP1 enzyme (Homo sapiens, UniProt P53634); test: Human DPP1 Enzyme Single-Point Percent Inhibition Testing (HL-60 lysate); type: biochemical; parameters: A crude lysate of HL-60 cells (ATCC; Manassas, VA) was used as a source of human DPP1 enzyme; host or cells: HL-60 cells (crude lysate); conditions: final compound concentration of 10 nM, 400 μM H-Gly-Arg-AMC, n = 1
human DPP1 enzyme, sequence (P53634 25-463): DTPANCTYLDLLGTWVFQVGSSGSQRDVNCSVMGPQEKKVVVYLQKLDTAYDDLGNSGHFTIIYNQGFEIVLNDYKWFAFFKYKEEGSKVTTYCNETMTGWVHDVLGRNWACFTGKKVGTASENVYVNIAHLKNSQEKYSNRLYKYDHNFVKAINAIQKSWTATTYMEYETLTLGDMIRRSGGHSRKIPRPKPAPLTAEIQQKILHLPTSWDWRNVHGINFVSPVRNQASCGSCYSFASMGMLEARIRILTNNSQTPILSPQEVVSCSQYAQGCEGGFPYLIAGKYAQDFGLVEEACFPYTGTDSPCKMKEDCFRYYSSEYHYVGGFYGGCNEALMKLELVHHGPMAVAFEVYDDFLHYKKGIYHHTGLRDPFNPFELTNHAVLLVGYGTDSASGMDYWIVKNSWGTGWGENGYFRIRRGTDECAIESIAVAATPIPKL
Experimental: Example 98. Human DPP1 Enzyme Single-Point Percent Inhibition Testing
A crude lysate of HL-60 cells (ATCC; Manassas, VA) was used as a source of human DPP1 enzyme in the assay. Lysate was prepared in 1% Triton X-100 in PBS at a concentration of 20,000 live cells per μL of lysis buffer and was centrifuged at 16,000 rcf for 10 minutes at 4° C., after which supernatant was collected and flash-frozen in liquid nitrogen. Test articles were applied to human DPP1 enzyme in Assay Buffer (25 mM MES pH 6.0, 50 mM NaCl, 5 mM DTT) in a total reaction volume of 125 μL. 25 μL of compound diluted to 50 nM in Assay Buffer plus 5% DMSO was first added to 50 μL of HL-60 lysate diluted to contain a DPP1 enzyme concentration of roughly 1 ng/μL and allowed to pre-incubate for 10 minutes at 37° C. after which 50 μL of 1000 μM H-Gly-Arg-AMC substrate (Bachem; St. Torrance, CA) was added, giving final compound concentration of 10 nM, a final substrate concentration of 400 μM and a final DMSO concentration of 1%. Substrate cleavage was measured for 90 minutes at 37° C., with fluorescence at Excitation/Emission 350/450 nm measured every 5 minutes. DPP1 concentration was interpolated based on its activity relative to a standard curve of activated human recombinant DPP1 enzyme. Percent inhibition at 10 nM was calculated for each test article based on remaining DPP1 activity compared to enzyme activity in wells that received only vehicle control.

DPP1 in HL-60 cells, sequence (P53634 25-463): as above

| Structure (SMILES) | inhibition at 0.005 µM [1] | inhibition at 0.01 µM [2] |
| --- | --- | --- |
| CO[C@H]1CCO[C@H](C(=O)NC(C#N)Cc2cc3c(cc2F)-c2cc(C#N)ccc2CO3)CNC1 (stereo partly drawn) [Compound B25] | ≤ 76.5% | 40 to 66.7% |
| CO[C@H]1CCO[C@H](C(=O)N[C@H](C#N)Cc2ccc(-c3ccc4cnn(C)c4c3)cc2F)CNC1 [Compound H19] | ≤ 76.5% | ≥ 66.7% |
| COC1CNC[C@@H](C(=O)N[C@H](C#N)Cc2ccc(-c3ccc4nnn(C)c4c3)cc2F)OC1 (stereo partly drawn) [Compound H14] | 76.5 to 93.9% | ≥ 66.7% |
| COC1CNC[C@@H](C(=O)N[C@H](C#N)Cc2ccc(-c3ccc4cnn(C5CCN(C)CC5)c4c3)cc2)OC1 (stereo partly drawn) [Compound H9] | ≤ 76.5% | ≥ 66.7% |
| CO[C@H]1CCO[C@H](C(=O)N[C@H](C#N)Cc2ccc(-c3ccc4c(c3)C3(CN(C)C3)OC4=O)cc2)CNC1 [Compound F20] | ≤ 76.5% | 40 to 66.7% |
| C[C@@H]1NC[C@@H](C(=O)N[C@H](C#N)Cc2ccc(-c3ccc4cnn(C5CCN(C)CC5)c4c3)cc2F)OC[C@@H]1O [Compound H28] | ≤ 76.5% | ≥ 66.7% |
| CO[C@@H]1CCNC[C@@H](C(=O)N[C@H](C#N)Cc2ccc(-c3ccc4c(c3)C3(CCN(C5COC5)CC3)OC4)cc2)OC1 [Compound F9] | ≤ 76.5% | ≥ 66.7% |
| CCN1C(=O)Cc2ccc(-c3ccc(C[C@@H](C#N)NC(=O)[C@@H]4CNC[C@@H](OC)CCO4)cc3)cc21 [Compound G5] | ≤ 76.5% | 40 to 66.7% |
| N#C[C@H](Cc1ccc(-c2ccc(S(=O)(=O)N3CCC3)cc2)cc1F)NC(=O)[C@@H]1CNCCCCO1 [Compound 47] | ≤ 76.5% | ≤ 40% |
| N#C[C@H](Cc1ccc(-c2cnc3c(n2)CCCC3)cc1F)NC(=O)[C@@H]1CNCCCCO1 [Compound A115] | ≤ 76.5% | ≤ 40% |
| C[C@@H]1NC[C@@H](C(=O)NC(C#N)Cc2cc3c(cc2F)-c2cc4c(cc2CO3)oc(=O)n4C)OC[C@H]1O (stereo partly drawn) [Compound C19] | ≤ 76.5% | ≥ 66.7% |
| Cn1c(=O)oc2cc3c(cc21)-c1cc(F)c(CC(C#N)NC(=O)[C@@H]2CNCCCO2)cc1OC3 (stereo partly drawn) [Compound C28] | 76.5 to 93.9% | ≥ 66.7% |
| N#Cc1ccc2c(c1)COc1cc(C[C@@H](C#N)NC(=O)[C@@H]3CNCCCCO3)c(F)cc1-2 [Compound B28] | ≤ 76.5% | 40 to 66.7% |
| C[C@@H]1NC[C@@H](C(=O)NC(C#N)Cc2cc3c(cc2F)-c2cc4c(cc2CO3)oc(=O)n4C)OC[C@@H]1O (stereo partly drawn) [Compound C22] | ≤ 76.5% | ≥ 66.7% |
| CO[C@H]1CCO[C@H](C(=O)N[C@H](C#N)Cc2ccc(-c3ccc4c(c3)C3(CCCN(C)C3)C(=O)N4C)cc2F)CNC1 (stereo partly drawn) [Compound F25] | ≤ 76.5% | ≥ 66.7% |
| CCN1C(=O)Cc2ccc(-c3ccc(C[C@@H](C#N)NC(=O)[C@@H]4CNCC[C@@H](OC)CO4)cc3)cc21 [Compound G1] | ≤ 76.5% | ≥ 66.7% |
| CO[C@H]1CCO[C@H](C(=O)N[C@H](C#N)Cc2ccc(-c3ccc(CN4CCN(C)CC4)cc3)cc2F)CNC1 [Compound F28] | ≤ 76.5% | ≤ 40% |
| CN1CCC2(C1)OC(=O)c1ccc(-c3ccc(C[C@@H](C#N)NC(=O)[C@@H]4CNCCCCO4)c(F)c3)cc12 (stereo partly drawn) [Compound 43] | ≤ 76.5% | 40 to 66.7% |
| CO[C@H]1CCO[C@H](C(=O)N[C@H](C#N)Cc2ccc(-c3cnc4c(n3)CCCC4)cc2)CNC1 [Compound A96] | ≤ 76.5% | 40 to 66.7% |
| COC1CNC[C@@H](C(=O)N[C@H](C#N)Cc2ccc(-c3cnc4c(n3)CCCC4)cc2)OC1 (stereo partly drawn) [Compound A90] | ≤ 76.5% | ≥ 66.7% |

| Structure (SMILES) | inhibition at 0.005 µM [1] | inhibition at 0.01 µM [2] |
| --- | --- | --- |
| CO[C@@H]1CCNC[C@@H](C(=O)N[C@H](C#N)Cc2ccc(-c3ccc4c(c3)C3(CC4)CCN(C)CC3)cc2F)OC1 [Compound F11] | ≤ 76.5% | ≥ 66.7% |
| CO[C@@H]1CCNC[C@@H](C(=O)NC(C#N)Cc2cc3c(cc2F)-c2cc(C#N)ccc2CO3)OC1 (stereo partly drawn) [Compound B21] | 76.5 to 93.9% | ≥ 66.7% |
| CO[C@@H]1CCNC[C@@H](C(=O)N[C@H](C#N)Cc2ccc(-c3ccc4c(c3)C3(CCCN(C)C3)C(=O)N4C)cc2)OC1 (stereo partly drawn) [Compound F7] | ≤ 76.5% | ≥ 66.7% |
| CO[C@@H]1CCNC[C@@H](C(=O)N[C@H](C#N)Cc2ccc(-c3cc4c(C)nc(C)cn4c3)cc2F)OC1 [Compound A82] | 76.5 to 93.9% | ≥ 66.7% |
| CO[C@H]1CCO[C@H](C(=O)N[C@H](C#N)Cc2ccc(-c3ccc4c(c3)C3(CCN(C5COC5)CC3)OC4)cc2)CNC1 [Compound F22] | ≤ 76.5% | 40 to 66.7% |
| N#C[C@H](Cc1cc2c(cc1F)-c1ccc(F)cc1CO2)NC(=O)[C@@H]1CNCCCCO1 [Compound B30] | ≤ 76.5% | ≤ 40% |
| N#C[C@H](Cc1ccc(-c2ccc(S(=O)(=O)N3CCC3)cc2)cc1)NC(=O)[C@@H]1CNCCCCO1 [Compound 46] | ≤ 76.5% | ≤ 40% |
| CN1CCN(Cc2ccc(-c3ccc(C[C@@H](C#N)NC(=O)[C@@H]4CNCCCCO4)cc3)cc2)CC1 [Compound 40] | ≤ 76.5% | ≤ 40% |
| N#C[C@H](Cc1cc2c(cc1F)-c1ccc(F)cc1CO2)NC(=O)[C@@H]1CNCCCO1 [Compound B34] | ≤ 76.5% | 40 to 66.7% |
| CO[C@H]1CCO[C@H](C(=O)N[C@H](C#N)Cc2ccc(-c3ccc4c(c3)C3(CC4)CCN(C)CC3)cc2F)CNC1 [Compound F24] | ≤ 76.5% | ≥ 66.7% |
| Cc1nc(C)c2cc(-c3ccc(C[C@@H](C#N)NC(=O)[C@@H]4CN[C@@H](C)[C@@H](O)CO4)cc3)cn2c1C [Compound A135] | ≤ 76.5% | ≤ 40% |
| Cn1nnc2ccc(-c3ccc(C[C@@H](C#N)NC(=O)[C@@H]4CNCCCCO4)cc3)cc21 [Compound H36] | ≤ 76.5% | ≤ 40% |
| CO[C@@H]1CCNC[C@@H](C(=O)N[C@H](C#N)Cc2ccc(-c3cc4c(C)ncc(C)n4c3)cc2)OC1 [Compound A122] | 76.5 to 93.9% | ≥ 66.7% |
| COC1CNC[C@@H](C(=O)N[C@H](C#N)Cc2ccc(-c3cc4c(C)nc(C)c(C)n4c3)cc2)OC1 (stereo partly drawn) [Compound A126] | ≥ 93.9% | ≥ 66.7% |
| CO[C@@H]1CCNC[C@@H](C(=O)N[C@H](C#N)Cc2ccc(-c3ccn4ccnc4c3)cc2)OC1 [Compound H39] | ≤ 76.5% | 40 to 66.7% |
| Cc1nc(C)c2cc(-c3ccc(C[C@@H](C#N)NC(=O)[C@@H]4CNCCCO4)cc3)cn2c1C [Compound A141] | 76.5 to 93.9% | ≤ 40% |
| CO[C@H]1CCO[C@H](C(=O)N[C@H](C#N)Cc2ccc(-c3ccc4cnn(C)c4c3)cc2)CNC1 [Compound H17] | ≤ 76.5% | ≤ 40% |
| N#C[C@H](Cc1ccc(-c2ccc3c(c2)C2(CCN(C4COC4)CC2)OC3)cc1)NC(=O)[C@@H]1CNCCCCO1 [Compound 39] | ≤ 76.5% | ≤ 40% |
| CN1CCC(n2ncc3ccc(-c4ccc(C[C@@H](C#N)NC(=O)[C@@H]5CNCCCCO5)cc4)cc32)CC1 [Compound H33] | ≤ 76.5% | ≤ 40% |
